Assay results published in US20180258381A1, “BIO-LAMINA BIOREACTORS AND METHODS OF MAKING AND USING THE SAME” (Oregon State University, priority 2015, published 2018).

How the values were obtained:
sMMO = target: T1, sMMO (Methylosinus trichosporium, UniProt P27353); assay: sMMO activity reactivity assay, inhibitor trials; assay type: cell-based, M. trichosporium OB3b
T1 construct: endogenous in cells; host or cells: M. trichosporium OB3b whole cells, grown without copper (chemostat or batch)
T1 sequence (P27353 1-526): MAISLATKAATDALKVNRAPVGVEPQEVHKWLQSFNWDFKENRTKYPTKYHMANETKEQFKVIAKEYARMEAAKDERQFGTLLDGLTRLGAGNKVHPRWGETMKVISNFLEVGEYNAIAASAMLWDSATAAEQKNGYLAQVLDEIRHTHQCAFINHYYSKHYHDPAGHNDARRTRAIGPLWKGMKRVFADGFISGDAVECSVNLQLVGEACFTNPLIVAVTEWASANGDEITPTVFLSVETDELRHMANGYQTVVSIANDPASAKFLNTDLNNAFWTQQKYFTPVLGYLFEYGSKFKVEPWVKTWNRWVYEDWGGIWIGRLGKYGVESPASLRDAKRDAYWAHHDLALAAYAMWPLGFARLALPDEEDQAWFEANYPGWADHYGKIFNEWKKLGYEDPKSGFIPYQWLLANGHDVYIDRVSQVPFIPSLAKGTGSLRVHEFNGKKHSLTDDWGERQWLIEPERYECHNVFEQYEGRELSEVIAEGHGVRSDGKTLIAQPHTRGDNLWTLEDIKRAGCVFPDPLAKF
T1 sequence (P27354 1-394 partner): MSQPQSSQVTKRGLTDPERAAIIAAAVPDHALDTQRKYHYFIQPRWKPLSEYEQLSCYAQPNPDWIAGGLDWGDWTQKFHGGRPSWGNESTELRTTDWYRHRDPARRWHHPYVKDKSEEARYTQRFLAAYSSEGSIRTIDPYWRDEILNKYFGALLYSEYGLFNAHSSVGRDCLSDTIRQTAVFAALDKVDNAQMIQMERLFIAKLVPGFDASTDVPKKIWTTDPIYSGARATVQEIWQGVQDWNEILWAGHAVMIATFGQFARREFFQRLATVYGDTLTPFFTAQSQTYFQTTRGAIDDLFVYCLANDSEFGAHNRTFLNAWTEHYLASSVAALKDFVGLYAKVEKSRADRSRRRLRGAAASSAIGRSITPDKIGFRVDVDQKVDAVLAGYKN
T1 sequence (P27355 1-169 partner): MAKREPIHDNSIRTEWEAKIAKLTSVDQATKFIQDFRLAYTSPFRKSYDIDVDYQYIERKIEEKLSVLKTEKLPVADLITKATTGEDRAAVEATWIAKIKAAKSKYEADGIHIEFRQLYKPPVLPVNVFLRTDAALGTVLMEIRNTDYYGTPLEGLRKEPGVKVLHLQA
Method: M. trichosporium OB3b cultures were grown under plus copper (pMMO expressed) or minus copper (sMMO expressed) conditions using chemostat or batch culture conditions. Aliquots of culture (˜100 ml) were harvested by centrifugation, and concentrated 50-fold in fresh media. Pelleting cells in this manner ensured that all residual methane was eliminated, increased ease of measuring protein, and made activity assays as brief as possible. Assays were performed in 30 ml crimp cap reaction vials with 4 ml of media (either +Cu or −Cu) with 10 mM sodium formate. To initiate assays, 100 µl of the 50× cell suspension was added to reaction vials with a plastic syringe. Short descriptions of activity assays follow.
Due to the relative insolubility of methane, large volumes should be added to reaction vials to achieve concentrations in the aqueous phase (Cw) above the concentration of methane where the velocity of methane consumption (V) is equal to 0.5Vmax for minus copper grown M. trichosporium OB3b cultures. These large methane additions make direct measurement of methane consumption in short-term assays unlikely, therefore the accumulation of ethylene oxide (ETO) upon the oxidation of ethylene (ETH) was used as a surrogate measurement. Reaction vials were prepared as described above and 5 ml of ETH added as an overpressure. The appearance of ETO was monitored by gas chromatography evaluation of Cw over the course of 30 minutes (FIG. 39A). Killed cells (boiled) served as a negative control. pMMO is a copper enzyme and can be inhibited by allylthiourea (ATU), while sMMO (an iron enzyme) is insensitive to inhibition by ATU. The ETH to ETO assay described above was repeated with 10 μM ATU to discriminate between sMMO and pMMO activity.
(§1) Metabolic activity test methods have been developed to monitor specific activities in M. trichosporium OB3b cultures. A naphthalene oxidation assay was used to determine if sMMO is being expressed. An ethylene to ethylene oxide reaction assay and a methane oxidation assay was used to quantify MMO activity, and a methanol oxidation assay was used to estimate MDH activity. Concurrent batch metabolic tests can be conducted to investigate methanol inhibition of methane oxidation, cyclopropane to cyclopropanol conversion and concurrent/subsequent cyclopropanol inhibition of MDH activity, the effect of cyclopropanol inhibition on growth yield, and the effects of high oxygen concentration. Once stable operation and baseline metabolic monitoring in the chemostat have been achieved, inhibitor can be added to evaluate chemostat operation under methanol-producing conditions.
MMO activity has been measured via both methane (CH4) consumption and ethylene oxide (ETO) production upon oxidation of the non-growth substrate ethylene (ETH, Table 4). While ETO production matches methane consumption for pMMO, ETH is not as good a substrate for sMMO as methane. Nevertheless, the ETO accumulation assay is quick (<30 min) and can be used to screen for activity before starting a larger experiment.
(§2) The effect of salts NaCl, NH4Cl and CaCl2 on MMO and MDH activity was evaluated using the reactivity assays described above.

MDH = MDH activity reactivity assay (methanol SOUR), inhibitor trials; assay type: cell-based, M. trichosporium OB3b; settings: for selective inhibition of MDH activity versus MMO: salts tested on MMO and MDH activity
Method: The procedure for measuring methanol dehydrogenase (MDH) activity by measuring the specific oxygen uptake rate (SOUR) has been tested on M. trichosporium OB3b cultures grown both in batch and in the chemostat. M. trichosporium OB3b cells were harvested using centrifugation. The supernatant was poured off and the cells were re-suspended in fresh media lacking a carbon source. Phosphate buffer solution was added to a sample chamber in which dissolved oxygen (DO) was measure with a DO probe. When the DO of the solution stabilized, the re-suspended cells were added to the sample chamber to measure baseline oxygen uptake by the cells without a carbon food source present. Methanol was then added to test for MDH activity. The difference in the oxygen uptake rates illustrates the MDH activity of the culture.
as §1, with “concentration.” for “concentration. Once stable operation and baseline metabolic monitoring in the chemostat have been achieved, inhibitor can be added to evaluate chemostat operation under methanol-producing conditions.”
as §2

For [Ca+2].[Cl-].[Cl-] [CaCl2], the “Fraction of Activity Remaining, sMMO” value (sMMO; CaCl2 10 mmol) was 0.41, the “Fraction of Activity Remaining, sMMO” value (sMMO; CaCl2 20 mmol) was 0.29 and the “Fraction of Activity Remaining, sMMO” value (sMMO; CaCl2 40 mmol) was 0.20. The “Fraction of Activity Remaining, MDH” value (MDH; CaCl2 10 mmol) was 0.71, the “Fraction of Activity Remaining, MDH” value (MDH; CaCl2 40 mmol) was 0.45 and the “Fraction of Activity Remaining, MDH” value (MDH; CaCl2 66 mmol) was 0.35. For the same compound, the “selective inhibition of MDH activity versus MMO” value (“selective inhibition” for short) (MDH) was “None of the salts were effective”.
With Cl.N [NH4Cl] the “selective inhibition” value (MDH) was “None of the salts were effective”.
For [Cl-].[Na+] [NaCl], the “selective inhibition” value (MDH) was “None of the salts were effective”.
